Assay results: ChEMBL document CHEMBL3045406, “Enantioselective Relieving Activity of α-Methylbenzylphenylureas toward Bensulfuron-methyl Injury to Rice (Oryza sativa)” (Biosci Biotechnol Biochem, 1999)

Key:
Oryza sativa [1] = experiment: Effect on Oryza sativa (rice) assessed as growth rate at 1 uM relative to control; assay type: organism-based; settings: in vivo
Oryza sativa [2] = experiment: Effect on Oryza sativa (rice) assessed as growth rate at 10 uM relative to control; assay type: organism-based; settings: in vivo
Oryza sativa [3] = experiment: Effect on Oryza sativa (rice) assessed as growth rate at 0.1 uM relative to control; assay type: organism-based; settings: in vivo
Oryza sativa [4] = experiment: Safener indices, ratio of compound effect of Oryza sativa (rice) growth rate to relieving activity against bensulfuron-methyl induced injury to Oryza sativa growth rate at 0.1 uM
Oryza sativa [5] = experiment: Relieving activity against bensulfuron-methyl induced injury to Oryza sativa (rice) assessed as growth rate at 10 uM (Rbv = 46 to 53%); assay type: functional
Oryza sativa [6] = experiment: Relieving activity against bensulfuron-methyl induced injury to Oryza sativa (rice) assessed as growth rate at 1 uM (Rbv = 46 to 53%); assay type: functional
Oryza sativa [7] = experiment: Safener indices, ratio of compound effect of Oryza sativa (rice) growth rate to relieving activity against bensulfuron-methyl induced injury to Oryza sativa growth rate at 10 uM
[8] = Hydrophobicity, log K of the compound; assay type: physicochemical; settings: octanol/water
Oryza sativa [9] = experiment: Relieving activity against bensulfuron-methyl induced injury to Oryza sativa (rice) assessed as growth rate at 0.1 uM (Rbv = 46 to 53%); assay type: functional
Oryza sativa [10] = experiment: Safener indices, ratio of compound effect of Oryza sativa (rice) growth rate to relieving activity against bensulfuron-methyl induced injury to Oryza sativa growth rate at 1 uM

Activity (Oryza sativa [1]) [%]	Activity (Oryza sativa [2]) [%]	Activity (Oryza sativa [3]) [%]	log K [8]	Structure (SMILES)	Ratio (Oryza sativa [4])	Activity (Oryza sativa [5]) [%]	Activity (Oryza sativa [6]) [%]	Ratio (Oryza sativa [7])	Activity (Oryza sativa [9]) [%]	Ratio (Oryza sativa [10])
96	93	99	0.487	CC(C)c1ccccc1NC(=O)N[C@@H](C)c1ccccc1	1	52	48	15	46	7
61	44	74	0.58	CC(C)c1cccc(NC(=O)N[C@H](C)c2ccccc2)c1	16	43	48	29	45	27
84	86	95	0.58	CC(C)c1cccc(NC(=O)N[C@@H](C)c2ccccc2)c1	6	68	55	47	47	26
79	49	99	0.577	CC(C)c1ccc(NC(=O)N[C@H](C)c2ccccc2)cc1	7	49	67	34	49	47
96	86	98	0.577	CC(C)c1ccc(NC(=O)N[C@@H](C)c2ccccc2)cc1	21	79	83	66	57	69
31	35	33	0.602	CCCc1ccc(NC(=O)N[C@H](C)c2ccccc2)cc1	18	38	33	24	32	20
76	73	97	0.602	CCCc1ccc(NC(=O)N[C@@H](C)c2ccccc2)cc1	30	69	68	50	66	47
95	17	100	0.535	C[C@@H](NC(=O)Nc1ccccc1C(C)(C)C)c1ccccc1	15	40	61	34	58	24
99	100	101	0.535	C[C@H](NC(=O)Nc1ccccc1C(C)(C)C)c1ccccc1	3	66	57	31	52	14
88	53	100	0.673	C[C@@H](NC(=O)Nc1ccc(C(C)(C)C)cc1)c1ccccc1	15	57	64	42	58	35
88	64	100	0.673	C[C@H](NC(=O)Nc1ccc(C(C)(C)C)cc1)c1ccccc1	4	68	65	53	52	37
32	28	100	0.76	CCCCc1ccc(NC(=O)N[C@H](C)c2ccccc2)cc1	13	28	38	16	57	26
72	60	98	0.76	CCCCc1ccc(NC(=O)N[C@@H](C)c2ccccc2)cc1	21	56	68	37	60	50
101	97	100	0.912	CCCCCc1ccc(NC(=O)N[C@H](C)c2ccccc2)cc1	3	69	65	38	54	27
98	93	98	0.912	CCCCCc1ccc(NC(=O)N[C@@H](C)c2ccccc2)cc1	9	71	59	43	55	16
101	101	100	1.081	CCCCCCc1ccc(NC(=O)N[C@H](C)c2ccccc2)cc1	6	61	54	22	52	9
100	99	99	1.081	CCCCCCc1ccc(NC(=O)N[C@@H](C)c2ccccc2)cc1	6	61	54	25	51	11
100	100	100	1.266	CCCCCCCc1ccc(NC(=O)N[C@H](C)c2ccccc2)cc1	5	53	52	9	51	5
99	99	100	1.266	CCCCCCCc1ccc(NC(=O)N[C@@H](C)c2ccccc2)cc1	4	59	53	21	51	9
100	100	100	0.667	CCOC(=O)c1ccccc1NC(=O)N[C@H](C)c1ccccc1	6	77	63	54	53	25
100	100	100	0.667	CCOC(=O)c1ccccc1NC(=O)N[C@@H](C)c1ccccc1	0	67	60	34	50	21
94	88	99	0.419	CCOC(=O)c1cccc(NC(=O)N[C@H](C)c2ccccc2)c1	15	87	74	77	57	51
95	54	99	0.456	C[C@@H](NC(=O)Nc1ccccc1C(F)(F)F)c1ccccc1	10	58	54	42	55	11
98	97	97	0.456	C[C@H](NC(=O)Nc1ccccc1C(F)(F)F)c1ccccc1	12	92	70	85	56	40
72	70	82	0.542	C[C@@H](NC(=O)Nc1cccc(C(F)(F)F)c1)c1ccccc1	26	68	63	50	57	41
93	92	94	0.542	C[C@H](NC(=O)Nc1cccc(C(F)(F)F)c1)c1ccccc1	26	82	75	66	62	53
89	82	93	0.537	C[C@@H](NC(=O)Nc1ccc(C(F)(F)F)cc1)c1ccccc1	22	67	74	42	59	53
94	94	94	0.537	C[C@H](NC(=O)Nc1ccc(C(F)(F)F)cc1)c1ccccc1	36	93	85	86	67	72
